Literature values as cited in patent US12653912B2 (SHENZHEN CHINA RESOURCES JIUCHUANG MEDICAL AND …, priority 2020, dated 2026).

Settings: 75 mg/m^2, intravenous bolus injecting

In the case of O=C1c2c(O)ccc(O)c2C(=O)c2c(NCCNCCO)ccc(NCCNCCO)c21 [mitoxantrone], the “AUC at the maximum tolerated total dosage” value is listed as 560 to 1700 ng·h/mL.
